In US8653132B2, “Phosphaplatins and their use in pharmaceutical compositions” (Ohio University, priority 2007, dated 2014):
Where two headings read alike, the source gives them in different places.

Columns and labels:
[1] = pKa from 31P chemical shift as a function of pH; format: physicochemical
[2] = test system: A2780 human ovarian cancer cells; test: Clonogenic assay, A2780; format: cell-based; conditions: 1 hour drug treatment, 1 week colony formation, read-out: IC50 A780
Method: Human ovarian cancer cells, A2780, were obtained from Dr. Thomas Hamilton (Fox Chase Cancer Center, Philadelphia, Pa.). Cells were cultured on monolayer using RPMI 1640 supplemented with 10% fetal bovine serum, 2 mM glutamine, 0.25 units/mL insulin and penicillin/streptomycin in a 37 degrees C. incubator continuously gassed with 5% CO2. Cells were subcultured using 0.0625% trypsin in HBSS to maintain cells in exponential growth.
IC50 values were determined using a clonogenic assay. Briefly, 500 A2780 cells from a single cell suspension were plated onto 60mm Petri plates 24 hours before drug treatment to permit cell attachment. On the day of drug treatment, the medium was decanted and replaced with the drug and these treated cells were placed back into the 37 degrees C. incubator for 1 hour. Triplicate plates were set up for each drug concentration. After the 1 hour drug treatment, the drug containing medium was decanted and replaced with fresh medium. These plates were returned to the 37 degrees C. incubator for 1 week for colony formation. Colonies were fixed and stained using 2% crystal violet in absolute methanol. Colonies containing more than 50 cells were scored. The number of scored colonies from the triplicate plates was averaged and this number was divided by the number of cells plated to obtain a value for the fraction of cells forming colonies. These values for fraction of cells forming colonies were then corrected for plating efficiency by dividing it by the number of cells forming colonies in plates that were not treated with drug.

[3] = test system: UMSCC10b/15s (Cisplatin-resistant) cells; test: Cytotoxicity in head and neck cancer cells, cisplatin-resistant; format: cell-based, human
Method: The UMSCC10b (Cisplatin-sensitive) and UMSCC10b/15s (Cisplatin-resistant) cell lines derived from human head and neck squamous cell cancer were lines were obtained from Dr. Stephen B. Howell of the University of California, Dan Diego. Cells were cultured in 1640 RPMI with 10% fetal bovine serum, 100 units/ml penicillin and 100 μg/m1 of streptomycin. Cells were seeded into 24-well plates with approximately 20,000 cells/500 μl of media in each well plate. Cells were exposed to dach-2 with variable concentrations ranging from 1.12 μM to maximum of 72 μM. Stock solutions of dach-2 complex were prepared and aliquots of these solutions were added to make those effective concentrations. Cells were then allowed to grow for 72 hours. Twelve different concentrations were used in this study. Each concentration had one control for a total of 12 controls.

A2780/C30 cells = test: Cellular accumulation of platinum by atomic absorption, A2780/C30; format: cell-based, human; conditions: 1 hr exposure
Method: Platinum content was quantitatively estimated on a Graphite Furnace Atomic Absorption Spectrometer (Perkin Elmer AA-600) from calibration curves established by using cisplatin or pyrodach-2 in water. Cells (5×10^6) were seeded in T75 cm^2 flasks. After 24 h, these cells were then treated with the different concentrations (0, 10, 20, 30 and 50 μM) of cisplatin and pyrodach-2. After 1 hr exposure with the platinum complexes, the drug-containing medium was removed and the cells were washed with ice-cold phosphate-buffered saline (PBS). The cells were then trypsinized and centrifuged into a pellet. Cell pellets were digested in concentrated HNO3 and H2O2 prior to analysis, according to the method of McGahan. Data reported in Table 4 were collected from three independent experiments each was carried out in duplicate. For the cisplatin accumulation, data were obtained from triplicate runs from a single sample at a given concentration.

guanine base = test: Guanine base binding by proton NMR; conditions: cisplatin after 48 hours, am-2 96 hours, dach-2 106 hours
Method: FIG. 12 is a comparison of guanine base binding (the predominant DNA binding site of cisplatin) among cisplatin (bottom), am-2 (middle), and dach-2 (top) by proton NMR spectroscopy. […] The bottom spectrum was recorded after 48 hours. The middle and top spectra were recorded after 96 and 106 hours, respectively.
(§1) Proton NMR spectroscopic experiments were conducted on a Bruker 500 MHz NMR instrument in 99% (atom) D2O with a water suppression pulse sequence. Samples contained cisplatin (2.0 mM) or pyrodach-2 (2.0 mM) and nucleotides (5′-dGMP, 5′-dAMP, dGpG (5.0 mM)), and, single- and double stranded DNA (calf thymus, 5.0 mM) at pH 7.0 maintained by phosphate and carbonate buffers (10-20 mM). Reactions of cisplatin (0.25 mM) and pyrodach-2 (0.25 mM) with a synthetic 25-mer: 5′-[…]-3′ (SEQ ID NO: 1) (0.25 mM) were also performed under identical conditions. Reactions were carried out up to 7 days, and ^1H and ^31P NMR spectra were recorded at regular time intervals. Usually, a pulse width of 5 μs with a 1.0 s repetition delay was used for the measurements. Typically, a sweepwidth of 10,000 Hz and 32 K data points were selected to collect the Free Induction Decays. A line broadening factor of 1 Hz was for applied Fourier transformation. The chemical shifts, with reference to H—O-D peak, are at 4.67 ppm.

[4] = test system: synthetic 25-mer oligonucleotide (SEQ ID NO:1); test: Platinum-DNA binding by NMR, 25-mer oligonucleotide; conditions: 1H NMR, identical conditions for both complexes
Method: (§2) In the associated experiment, dach-2 was allowed to react with double-stranded calf-thymus DNA, a synthetic oligonucleotide (5′-[…]-3′; SEQ ID NO:1), a dinucleotide (dGpG), and nucleotide monophosphates (5′-dGMP and 5′-dAMP) at concentrations as much as 250-times higher than those of cellular doses. The extent of DNA binding was monitored by ^1H NMR spectroscopy. In parallel, similar reactions with cisplatin were conducted under identical conditions.
as §1, with “The chemical shifts, with reference to H—O-D peak, are at 4.67 ppm.” left out

[5] = test system: calf-thymus DNA, oligonucleotide, dGpG, 5'-dGMP and 5'-dAMP; test: Platinum binding to DNA and nucleotides by NMR; conditions: 1H NMR, up to seven days
Method: as §2
as §1, with “The chemical shifts, with reference to H—O-D peak, are at 4.67 ppm.” left out

fas = test: Apoptotic gene array, real-time PCR: fas; format: cell-based; conditions: preliminary
Method: (§3) Preliminary gene expression experiments involving complexes of the present invention as compared to cisplatin (data not shown) were carried out with an apoptotic array containing 84 genes that includes the BCL2 superfamily, both pro- and anti-apoptotic, caspases, the BIR-family, TNF receptor […] factors, p53 and its congeners, and fas associated members by real-time PCR. A closer look at the two sets of gene expressions clearly indicates a number of differences in the expression patterns. […] Specifically, fas was over-expressed by 6-fold compared to the control, and TNFRS genes such as TNFRSF-10B was overexpressed by 2-3 folds over controls. These latter receptor factors belong to the fas superfamily.

BAX = test: Apoptotic gene array, real-time PCR: BAX; format: cell-based; conditions: preliminary
Method: as §3

[6] = calculated from phosphorus-31 chemical shifts

NC1CCCCC1N.O=P([O-])(O)OP(=O)([O-])O.[Pt+2] [dach-2, (Trans-1,2-cyclohexanediamine)(dihydrogenpyrophosphato)platinum(II)]
pKa1 [1, 6]: 2.6 ± 0.2 | pKa2 [1, 6]: 4.4 ± 0.2 | pKa1 (value in parentheses) ([1]; second value printed in parentheses under pKa1, not explained): (3.3 ± 0.1) | IC50 [2]: 20 ± 4 µM | IC50 ([3]; 72 hours growth, read-out: IC50 for UMSCC10b/15s (Cisplatin-resistant)): 5 µM | IC50 ([3]; FIG. 9 legend, read-out: IC50 cisplatin-resistant head and neck cancer cells): < 5 µM | Cellular accumulation of platinum (A2780/C30 cells; A2780/C30, 10 μM): 0.10 ± 0.08 ng/10^6 cells | Cellular accumulation of platinum (A2780/C30 cells; A2780/C30, 20 μM): 1.00 ± 0.02 ng/10^6 cells | Cellular accumulation of platinum (A2780/C30 cells; A2780/C30, 30 μM): 1.00 ± 0.02 ng/10^6 cells | Cellular accumulation of platinum (A2780/C30 cells; A2780/C30, 50 μM): 2.00 ± 0.10 ng/10^6 cells | guanine base binding (H8 signal) (guanine base): exhibits a signal for the free guanine base at 8.05 ppm | DNA binding, 25-mer oligonucleotide [4]: does not exhibit any measurable DNA binding | adduct formation with nucleotides [5]: no detectable NMR signals | fas over-expression compared to the control (fas): 6 fold | BAX overexpression (BAX): 2-3 folds
